What was measured:
[1] = system: p85α; experiment: IHC of p85α in tumour tissues from peptide-treated mice; type: in vivo, nude mice with human tumour cells; details: PepC
Method: In brief, the tissue sections were deparaffinized in xylene and 50–100% ethanol sequentially and then rehydrated in deionized water. The sections were immersed in Antigen Retrieval Solution in a pressure cooker and kept at 120 °C for 2.5 min. Endogenous peroxidase activity was blocked with peroxidase blocking reagent (3% hydrogen peroxide in water) for 15 min. The sections were incubated with primary antibodies in incubation buffer at 4 °C overnight. The sections were rinsed with wash buffer and incubated with secondary antibodies at room temperature for 1 h. Finally, the sections were immersed in DAB Chromogen Solution for suitable staining and counterstained with Haematoxylin QS for 3 min. The protein score was calculated by multiplying the percentage of positive cells (<10% = 0, 10–25% = 1, 25–50% = 2, 50–75% = 3, >75% = 4) by the intensity (negative = 0, weak staining = 1, moderate staining = 2, or strong staining = 3). The stained sections were evaluated by two independent pathologists who were blinded to the clinical characteristics.
(§1) To determine the antitumour effect of the peptide in vitro, the peptide was incubated with cells for 24 h when the cells were grown to approximately 80% confluence. Cell viability was measured at the indicated time points. The cell lysates were collected for immunoprecipitation as described above. To determine the antitumour effect of the peptide in vivo, the peptide was stereotactically injected using identical coordinates of tumour implantation in 3 μl of PBS. Briefly, 3 weeks after intracranial tumour cell implantation, mice with similar tumour sizes and similar weights were selected and randomly arranged into five groups (n = 6): PBS, PepC (0.25 mg/kg TAT-PepC per injection), Pep9 low dose (Pep9 L, 0.05 mg/kg TAT-Pep9 per injection), Pep9 medium dose (Pep9 M, 0.1 mg/kg TAT-Pep9 per injection), and Pep9 high dose (Pep9 H, 0.25 mg/kg TAT-Pep9 per injection). Each mouse received intratumoural injection every 10 days (at Day 21, Day 31, Day 41, and Day 51), and tumour growth was monitored at Day 21, Day 41, and Day 56. The experiment was terminated at Day 80, and all the mice (if they were alive) were sacrificed as previously described.

[2] = system: HS683 cells; experiment: Cell proliferation / viability assay, HS683; type: cell-based, Human; details: Supplementary Figure 8f
Method: Cells were seeded into 12-well plates at a density of 1 × 10^4 cells per well. Manual cell counting was carried out at the indicated times using trypan blue and a haemocytometer.
as §1

## SAEGYQYRALYD [Pep1, peptide found on the p85α SH3 domain; selected as the control named PepC]
[1]; replicate 1
  score (Supplementary Figure 8k): 2
[1]; replicate 2
  score (Supplementary Figure 8k): 1
[1]; replicate 3
  score (Supplementary Figure 8k): 1
[1]; replicate 4
  score (Supplementary Figure 8k): 3
[1]; replicate 5
  score (Supplementary Figure 8k): 1
[2]; 5 μM, replicate 1
  Relative cell viability: 0.98
[2]; 5 μM, replicate 2
  Relative cell viability: 0.96
[2]; 5 μM, replicate 3
  Relative cell viability: 0.94
[2]; 10 μM, replicate 1
  Relative cell viability: 0.96
[2]; 10 μM, replicate 2
  Relative cell viability: 0.95
[2]; 10 μM, replicate 3
  Relative cell viability: 0.91
[2]; 20 μM, replicate 1
  Relative cell viability: 0.94
[2]; 20 μM, replicate 2
  Relative cell viability: 0.90
[2]; 20 μM, replicate 3
  Relative cell viability: 0.89
[2]; 30 μM, replicate 1
  Relative cell viability: 0.92
[2]; 30 μM, replicate 2
  Relative cell viability: 0.88
[2]; 30 μM, replicate 3
  Relative cell viability: 0.85
